The record followed here is patent publication US20240376094A2, “SELECTIVE BCL-XL PROTAC COMPOUNDS AND METHODS OF USE” (Les Laboratoires Servier, priority 2021, published 2024).

pIC50: −log10 of the molar value.

Common to all, as to type: cell-based
In one assay the test system is COR-L105. Briefly: CellTiter-Glo proliferation assay, COR-L105. The conditions noted are these: Homo sapiens, COR-L105, 120 h, COR-L105, 5 days; for Emax: read-out: COR-L105 Span (max). As to the method:
(§1) The BCL-xL degrader compounds were tested against two endogenous cancer cell lines: • COR-L105: ECACC No. 92031918 cultured in RPMI-1640+10% FBS • NCI-H1650: (ATCC No. CRL-5883 cultured in RPMI-1640+10% FBS
(§2) The ability of the BCL-xL degrader low molecular weight compounds to inhibit cell proliferation and survival was assessed using the Promega CellTiter-Glo® proliferation assay.
(§3) Cell lines were cultured in media that is optimal for their growth at 5% CO2, 37° C. in a tissue culture incubator. Prior to seeding for the proliferation assay, the cells were split at least 2 days before the assay to ensure optimal growth density. On the day of seeding, adherent cells were lifted off tissue culture flasks using 0.25% trypsin. Cell viability and cell density were determined using a cell counter (Vi-Cell XR Cell Viability Analyzer, Beckman Coulter). Cells with higher than 85% viability were seeded for the assay.
(§4) The COR-105 cell line was seeded in white, clear bottom 384-well TC treated plates (Corning cat. #3765). Cells were seeded at a density of 1,000 cells per well in 45 μL of standard growth media. Plates were incubated at 5% CO2, 37° C. overnight in a tissue culture incubator. The NCI-H1650 cell line was seeded in black, clear round bottom 384-well ultra-low attachment spheroid microplates (Corning cat. #3830). Cells were seeded at a density of 3,000 cells per well in 45 uL of standard growth media. Plates were spun in a centrifuge for 5 minutes and 1,000 RPM. Plates were incubated at 5% CO2, 37° C. for 72 hours in a tissue culture incubator.
(§5) On the day of dosing, BCL-xL degrader low molecular weight compounds were prepared at 1 OX in standard growth media. The prepared drug treatments were then added to the cells resulting in final concentrations of 0.508 nM-10 μM and a final volume of 50 μL per well. Each drug concentration was tested in quadruplets. Plates were incubated at 5% CO2, 37° C. for 5 days in a tissue culture incubator.
(§6) For COR-L105 plates, cell viability was assessed through the addition of 25 μL of CellTiter Glo® (Promega, cat #G7573), a reagent which lyses cells and measures total adenosine triphosphate (ATP) content. Plates were incubated at room temperature for 10 minutes to stabilize luminescent signals prior to reading with a luminescence reader (EnVision Multilabel Plate Reader, PerkinElmer). For NCI-H1650 plates, cell viability was assessed through the addition of 40 μL of CellTiter Glo® 3D Cell Viability Assay substrate (Promega, cat #G9681), a reagent which lyses cells and measures total adenosine triphosphate (ATP) content. Wells were mixed thoroughly and plates were incubated at room temperature for 30 minutes to stabilize luminescent signals prior to reading using a luminescence reader (EnVision Multilabel Plate Reader, PerkinElmer).
(§7) To evaluate the effect of the drug treatments, luminescent counts from wells containing untreated cells (100% viability) were used to normalize treated samples. A variable slope model was applied to fit a nonlinear regression curve to the data in GraphPad PRISM version 7.02 software. IC50 and Amax values were extrapolated from the resultant curves. The concentrations of treatment required to inhibit 50% of cell growth or survival (IC50) were calculated with representative IC50 values of the cell lines tested summarized in Table 11.

Another assay relates to NCI-H1650. Briefly: CellTiter-Glo 3D proliferation assay, NCI-H1650 spheroids. The arrangement: key to NCI-H1650 Span (Amax): —: constructs were tested and inactive. The following applies: 5 days; for pIC50 / Emax: Homo sapiens, NCI-H1650, 120 h; for Emax: read-out: NCI-H1650 Span (Amax). As for the experimental part:
as §1, §2, §3, §4, §5, §6, §7

In another assay the test system is MOLT-4 cells. Briefly: MOLT-4 cell viability, MTT assay. The conditions noted are these: Homo sapiens, MOLT-4, 48 h. A digest of the protocol:
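MOLT-4 cells in RPMI 1640 with 10% FBS were exposed to compounds for 48 h at 9 concentrations (3.16-fold dilutions, triplicates). After 4 h with MTT and overnight SDS/HCl solubilisation, absorbance was read at 540 nm. IC50 came from four-parameter fits versus control, as the mean of ≥2 independent experiments.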

For a further assay, the target named is T1, Bcl-xL (Homo sapiens, UniProt Q07817).
T1 construct: Measured levels of Bcl-xL protein of HCT116 cells treated with the tested compounds; host or cells: HCT116
T1 sequence (Q07817 whole entry): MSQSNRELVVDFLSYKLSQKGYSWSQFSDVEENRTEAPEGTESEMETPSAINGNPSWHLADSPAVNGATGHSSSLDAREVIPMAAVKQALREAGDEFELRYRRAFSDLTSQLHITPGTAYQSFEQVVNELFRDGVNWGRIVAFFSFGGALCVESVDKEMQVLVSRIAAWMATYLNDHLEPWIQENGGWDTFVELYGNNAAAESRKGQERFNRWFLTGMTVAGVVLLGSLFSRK
Briefly: HCT116 Bcl-xL degradation, capillary-based immunoassay (WES). The conditions noted are these: for remaining activity at 0.01 µM / remaining activity at 0.1 µM: HCT-116, 24 h, % of untreated cells; for remaining activity at 0.01 µM: HCT116, 10 nM; for remaining activity at 0.1 µM: HCT116, 100 nM; for DC50: HCT116, 24 h, 9-point serial dilution. A digest of the protocol: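 Bcl-xL protein level by capillary WES immunoassay in HCT116 lysates, as % of untreated after cofilin normalization. Compound exposure was 24 h at 10 and 100 nM and/or a 9-point series, in quadruplicate. Four-parameter fitting gave the DC50.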

For assay [1], the system named is EBC-1 lung cancer cell line. Briefly: EBC-1 cell proliferation, CellTiter-Glo assay. The conditions noted are these: Homo sapiens, 120 h; Ebc-1 cell viability, CTG assay, 5 days of treatment; read-out: CTG 5 day Ebc1 GI50. A digest of the protocol: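 CellTiter-Glo read-out after 5-day compound treatment, normalised to untreated cells, with GI50 derived by four-parameter logistic regression. Ten concentrations spanning 0.508 nM–10 μM were added to 1000 EBC-1 cells per well the day after seeding. Assays required at least one cell doubling versus Day 0.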
A general note: In ATP-based viability assays light output follows the ATP content of the culture.

Another assay has as its target T2, HiBiT-tagged BCL-xL (Homo sapiens, UniProt Q07817).
T2 construct: expressed in transfected cells; host or cells: NCI-H1650 (ATCC No. CRL-5883), engineered HiBiT cell line
Briefly: NCI-H1650 BCL-xL protein levels, Nano-Glo HiBiT Lytic Detection. The conditions noted are these: NCI-H1650 expressing HiBiT-tagged BCL-xL, overnight incubation, read-out: Bcl-xl HIBIT NCIH1650 DC50. A digest of the protocol: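 HiBiT luminescence after cell lysis with LgBiT/furimazine reagent reported BCL-xL levels, expressed relative to untreated wells and fitted with a four-parameter logistic equation. Engineered NCI-H1650 cells were exposed overnight at 37° C to compound at final 0.508 nM-10 μM (10 points, triplicate plates).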

T2 sequence (Q07817 whole entry): as above

As to `Cc1cc(N(C)c2nc(C(=O)O)c(CCCOc3ccc(C#CCN(C)CC(=O)NCCOCCNC(=O)COc4cccc5c4C(=O)N(C4CCC(=O)NC4=O)C5=O)cc3F)s2)nnc1Nc1nc2ccccc2s1` (centres unmarked) [Example 32, 2-[[6-(1,3-benzothiazol-2-ylamino)-5-methyl-pyridazin-3-yl]-methyl-amino]-5-[3-[4-[3-[[2-[2-[2-[[2-[2-(2,6-dioxo-3-piperidyl)-1,3-dioxo-isoindolin-4-yl]oxyacetyl]amino]ethoxy]ethylamino]-2-oxo-ethyl]-methyl-amino]prop-1-ynyl]-2-fluoro-phenoxy]propyl]thiazole-4-carboxylic acid], the negative-log IC50 (pIC50) in the assay on COR-L105 is < 5.00. In the assay with NCI-H1650, the “NCI-H1650 Span (Amax)” value is “—” and the pIC50 is < 6.00. Also, the pIC50 in the assay with MOLT-4 cells was 7.19. On Bcl-xL, the remaining activity at 0.01 µM was 83% and the remaining activity at 0.1 µM was 53%.
For `Cc1c(Nc2nc3ccccc3s2)nnc2c1CCCN2c1nc(C(=O)O)c(CCCOc2ccc(C#CCN3CCN(C(=O)CCCCCCC(=O)NCCOCCNC(=O)COc4cccc5c4C(=O)N(C4CCC(=O)NC4=O)C5=O)CC3)cc2F)s1` (centres unmarked) [Example 25, 2-[3-(1,3-benzothiazol-2-ylamino)-4-methyl-6,7-dihydro-5H-pyrido[2,3-c]pyridazin-8-yl]-5-[3-[4-[3-[4-[8-[2-[2-[[2-[2-(2,6-dioxo-3-piperidyl)-1,3-dioxo-isoindolin-4-yl]oxyacetyl]amino]ethoxy]ethylamino]-8-oxo-octanoyl]piperazin-1-yl]prop-1-ynyl]-2-fluoro-phenoxy]propyl]thiazole-4-carboxylic acid], in the assay with COR-L105, the pIC50 was 6.76 and the Emax was 87.4%. For the same molecule, in the assay with NCI-H1650, the pIC50 is 7.41 and the Emax is 74%. Also, in the assay on MOLT-4 cells, the pIC50 was 8.96. Further, at Bcl-xL, the DC50 is > 316 nM, the remaining activity at 0.01 µM is 59% and the remaining activity at 0.1 µM was determined as 55%.
`Cc1ncsc1-c1ccc(CNC(=O)C2C[C@@H](O)CN2C(=O)C(NC(=O)CCCCCC(=O)N2CCN(CCOC34CC5(C)CC(C)(CC(Cn6ncc(-c7ccc(N8CCCc9c8nnc(Nc8nc%10ccccc%10s8)c9C)nc7C(=O)O)c6C)(C5)C3)C4)CC2)C(C)(C)C)cc1` (stereo in doubt) [Example 22, 6-[3-(1,3-benzothiazol-2-ylamino)-4-methyl-6,7-dihydro-5H-pyrido[2,3-c]pyridazin-8-yl]-3-[1-[[3-[2-[4-[7-[[(1S)-1-[(2S,4R)-4-hydroxy-2-[[4-(4-methylthiazol-5-yl)phenyl]methylcarbamoyl]pyrrolidine-1-carbonyl]-2,2-dimethyl-propyl]amino]-7-oxo-heptanoyl]piperazin-1-yl]ethoxy]-5,7-dimethyl-1-adamantyl]methyl]-5-methyl-pyrazol-4-yl]pyridine-2-carboxylic acid]: in the assay on COR-L105, the pIC50 was 6.56 and the Emax was 104%. Moreover, in the assay with NCI-H1650, the pIC50 is 7.14 and the Emax turned out to be 92.6%. The molecule also had a pIC50 in the assay on MOLT-4 cells of 8.33. Further, at Bcl-xL, the DC50 is > 316 nM, the remaining activity at 0.01 µM worked out at 68% and the remaining activity at 0.1 µM amounted to 54%.
Take `Cc1ncsc1-c1ccc([C@H](C)NC(=O)C2C[C@@H](O)CN2C(=O)C(NC(=O)CCCCCCC(=O)N2CCN(CC#Cc3ccc(OCCCc4sc(N5CCCc6c5nnc(Nc5nc7ccccc7s5)c6C)nc4C(=O)O)c(F)c3)CC2)C(C)(C)C)cc1` (stereo in doubt) [Example 16, 2-[3-(1,3-benzothiazol-2-ylamino)-4-methyl-6,7-dihydro-5H-pyrido[2,3-c]pyridazin-8-yl]-5-[3-[2-fluoro-4-[3-[4-[8-[[(1S)-1-[(2S,4R)-4-hydroxy-2-[[(1S)-1-[4-(4-methylthiazol-5-yl)phenyl]ethyl]carbamoyl]pyrrolidine-1-carbonyl]-2,2-dimethyl-propyl]amino]-8-oxo-octanoyl]piperazin-1-yl]prop-1-ynyl]phenoxy]propyl]thiazole-4-carboxylic acid]: in the assay on MOLT-4 cells, the negative-log IC50 (pIC50) is 8.97. Further, on Bcl-xL, the DC50 came to 0.47 nM, the remaining activity at 0.01 µM was found to be 7% and the remaining activity at 0.1 µM is 7%. For the same molecule, the GI50 in assay [1] is 9 nM. For the same molecule, the DC50 on HiBiT-tagged BCL-xL was 3 nM.
Consider `Cc1ncsc1-c1ccc(CNC(=O)[C@@H]2CC(O)CN2C(=O)C(NC(=O)CCCCC(=O)N2CCN(CCOC34CC5(C)CC(C)(CC(Cn6ncc(-c7ccc(N8CCCc9c8nnc(Nc8nc%10ccccc%10s8)c9C)nc7C(=O)O)c6C)(C5)C3)C4)CC2)C(C)(C)C)cc1` (stereo in doubt) [Example 23, 6-[3-(1,3-benzothiazol-2-ylamino)-4-methyl-6,7-dihydro-5H-pyrido[2,3-c]pyridazin-8-yl]-3-[1-[[3-[2-[4-[6-[[(1S)-1-[(2S,4R)-4-hydroxy-2-[[4-(4-methylthiazol-5-yl)phenyl]methylcarbamoyl]pyrrolidine-1-carbonyl]-2,2-dimethyl-propyl]amino]-6-oxo-hexanoyl]piperazin-1-yl]ethoxy]-5,7-dimethyl-1-adamantyl]methyl]-5-methyl-pyrazol-4-yl]pyridine-2-carboxylic acid], for which the pIC50 was 6.74 in the assay with COR-L105, 7.45 in the assay on NCI-H1650 and 7.98 in the assay with MOLT-4 cells. The figures for the Emax with COR-L105 and with NCI-H1650 were 100% and 71.4%, respectively. Also, the remaining activity at 0.01 µM on Bcl-xL was determined as 82%. Besides, the remaining activity at 0.1 µM at Bcl-xL came to 67%.

By pIC50 is commonly meant −log10 of the IC50, conventionally taken in molar units. As usually defined, the remaining activity is the activity still measured, relative to the control. The term GI50 denotes the concentration at which growth is held to half of that of the control.
